Source: patent US20070010671A1, “Novel quinazoline derivatives and methods of treatment related to the use thereof” (priority 2003, published 2007)

target: MCH receptor (Homo sapiens, UniProt Q99705); assay: High throughput functional screening FLIPR/FDSS6000: inhibition of MCH-evoked intracellular Ca2+ changes; format: cell-based; conditions: class by percent of control at 10^-7 M or IC50
How it was run: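 Antagonism was measured as inhibition of calcium responses to 50 nM MCH, monitored 290 s at ex 488/em 530 nm on FLIPR or FDSS6000. Beforehand, cells bearing a constitutively active MCH receptor received Fluo4-AM (4 μM, 1 h, 37 °C) with probenecid, and test compound for 3 min.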

Structure (SMILES) | class
CN(C)c1nc(N[C@H]2CC[C@@H](NC(=S)NCc3ccc(Cl)cc3)CC2)nc2ccccc12 [compound 271] | 3 (Class 3: The value of percent of control at 10^−7 M was more than 60% or the value of IC50 was more than 200 nM.)
CN(C)c1nc(N[C@H]2CC[C@@H](CNC(=S)NCC3CCCCC3)CC2)nc2ccccc12 [compound 710, N-(cyclohexylmethyl)-N′-[(cis-4-{[4-(dimethylamino)quinazolin-2-yl]amino}cyclohexyl)methyl]thiourea] | 2 (Class 2: The value of percent of control at 10^−7 M was from 40% to 60% or the value of IC50 was from 50 nM to 200 nM.)
CCc1cccc(NC(=S)NC[C@H]2CC[C@@H](Nc3nc(N(C)C)c4ccccc4n3)CC2)c1 [compound 731] | 3 (Class 3: The value of percent of control at 10^−7 M was more than 60% or the value of IC50 was more than 200 nM.)
CCc1ccc(NC(=S)N[C@H]2CC[C@@H](Nc3nc(N(C)C)c4ccccc4n3)CC2)cc1 [compound 205] | 2 (Class 2: The value of percent of control at 10^−7 M was from 40% to 60% or the value of IC50 was from 50 nM to 200 nM.)
CN(C)c1nc(N[C@H]2CC[C@@H](NC(=S)Nc3cc(Cl)ccc3F)CC2)nc2ccccc12 [compound 376] | 3 (Class 3: The value of percent of control at 10^−7 M was more than 60% or the value of IC50 was more than 200 nM.)
Cc1ccc(NC(=O)NC[C@H]2CC[C@@H](Nc3nc(N(C)C)c4ccccc4n3)CC2)cc1 [compound 457, N-[(cis-4-{[4-(dimethylamino)quinazolin-2-yl]amino}cyclohexyl)methyl]-N′-(4-methylphenyl)urea] | 1 (Class 1: The value of percent of control at 10^−7 M was less than 40% or the value of IC50 was less than 50 nM.)
Cc1cc(F)ccc1NC(=S)N[C@H]1CC[C@@H](Nc2nc(N(C)C)c3ccccc3n2)CC1 [compound 316, N-(cis-4-{[4-(dimethylamino)quinazolin-2-yl]amino}cyclohexyl)-N′-(4-fluoro-2-methylphenyl)thiourea] | 1 (Class 1: The value of percent of control at 10^−7 M was less than 40% or the value of IC50 was less than 50 nM.)
CN(C)c1nc(N[C@H]2CC[C@@H](NC(=S)Nc3ccccc3F)CC2)nc2ccccc12 [compound 218] | 3 (Class 3: The value of percent of control at 10^−7 M was more than 60% or the value of IC50 was more than 200 nM.)
CCOC(=O)c1cccc(NC(=S)NC[C@H]2CC[C@@H](Nc3nc(N(C)C)c4ccccc4n3)CC2)c1 [compound 730] | 3 (Class 3: The value of percent of control at 10^−7 M was more than 60% or the value of IC50 was more than 200 nM.)
CC(NC(=O)NCC1CCC(Nc2nc(N(C)C)c3ccccc3n2)CC1)c1ccccc1 (stereo not drawn) [compound 466, 1-[4-(4-Dimethylamino-quinazolin-2-ylamino)-cyclohexylmethyl]-3-(1-phenyl-ethyl)-urea] | 2 (Class 2: The value of percent of control at 10^−7 M was from 40% to 60% or the value of IC50 was from 50 nM to 200 nM.)
C#CCNC(=S)NC[C@H]1CC[C@@H](Nc2nc(N(C)C)c3ccccc3n2)CC1 [compound 777] | 3 (Class 3: The value of percent of control at 10^−7 M was more than 60% or the value of IC50 was more than 200 nM.)
CN(C)c1nc(N[C@H]2CC[C@@H](CNC(=S)Nc3ccc4c(c3)CCC4)CC2)nc2ccccc12 [compound 747] | 3 (Class 3: The value of percent of control at 10^−7 M was more than 60% or the value of IC50 was more than 200 nM.)
CN(C)c1nc(N[C@H]2CC[C@@H](CNC(=O)Nc3ccccc3C(F)(F)F)CC2)nc2ccccc12 [compound 455, N-[(cis-4-{[4-(dimethylamino)quinazolin-2-yl]amino}cyclohexyl)methyl]-N′-[2-(trifluoromethyl)phenyl]urea] | 1 (Class 1: The value of percent of control at 10^−7 M was less than 40% or the value of IC50 was less than 50 nM.)
CN(C)c1nc(N[C@H]2CC[C@@H](NC(=S)Nc3ccc(C(F)(F)F)cc3)CC2)nc2ccccc12 [compound 231, N-(cis-4-{[4-(dimethylamino)quinazolin-2-yl]amino}cyclohexyl)-N′-[4-(trifluoromethyl)phenyl]thiourea] | 2 (Class 2: The value of percent of control at 10^−7 M was from 40% to 60% or the value of IC50 was from 50 nM to 200 nM.)
Cc1cc(Cl)cc(Cl)c1NC(=S)N[C@H]1CC[C@@H](Nc2nc(N(C)C)c3ccccc3n2)CC1 [compound 361, N-(2,4-dichloro-6-methylphenyl)-N′-(cis-4-{[4-(dimethylamino)quinazolin-2-yl]amino}cyclohexyl)thiourea] | 1 (Class 1: The value of percent of control at 10^−7 M was less than 40% or the value of IC50 was less than 50 nM.)
CCCCOC(=O)c1ccc(NC(=O)NC[C@H]2CC[C@@H](Nc3nc(N(C)C)c4ccccc4n3)CC2)cc1 [compound 535] | 3 (Class 3: The value of percent of control at 10^−7 M was more than 60% or the value of IC50 was more than 200 nM.)
CCCCc1ccc(NC(=S)N[C@H]2CC[C@@H](Nc3nc(N(C)C)c4ccccc4n3)CC2)cc1 [compound 281] | 3 (Class 3: The value of percent of control at 10^−7 M was more than 60% or the value of IC50 was more than 200 nM.)
CSc1ccccc1NC(=S)N[C@H]1CC[C@@H](Nc2nc(N(C)C)c3ccccc3n2)CC1 [compound 206] | 2 (Class 2: The value of percent of control at 10^−7 M was from 40% to 60% or the value of IC50 was from 50 nM to 200 nM.)
COc1cc(NC(=S)NC[C@H]2CC[C@@H](Nc3nc(N(C)C)c4ccccc4n3)CC2)cc(OC)c1OC [compound 619] | 3 (Class 3: The value of percent of control at 10^−7 M was more than 60% or the value of IC50 was more than 200 nM.)
CN(C)c1nc(N[C@H]2CC[C@@H](NC(=S)Nc3ccccc3-c3ccccc3)CC2)nc2ccccc12 [compound 297, N-biphenyl-2-yl-N′-(cis-4-{[4-(dimethylamino)quinazolin-2-yl]amino}cyclohexyl)thiourea] | 1 (Class 1: The value of percent of control at 10^−7 M was less than 40% or the value of IC50 was less than 50 nM.)
CC(NC(=O)NCC1CCC(Nc2nc(N(C)C)c3ccccc3n2)CC1)c1cccc2ccccc12 (stereo not drawn) [compound 467] | 2 (Class 2: The value of percent of control at 10^−7 M was from 40% to 60% or the value of IC50 was from 50 nM to 200 nM.)

same assay, conditions: class by percent of control at 10^-7 M or by IC50; read-out: class

IC50 | Structure (SMILES)
50 to 200 nM | COc1ccc(OC)c(NC(=O)N[C@H]2CC[C@@H](Nc3nc(N(C)C)c4ccccc4n3)CC2)c1 [compound 81]
50 to 200 nM | CC(NC(=O)NC1CCC(Nc2nc(N(C)C)c3ccccc3n2)CC1)c1cccc2ccccc12 (stereo not drawn) [compound 67, 1-[4-(4-Dimethylamino-quinazolin-2-ylamino)-cyclohexyl]-3-(1-napthalen-1-yl-ethyl)-urea]
50 to 200 nM | CN(C)c1nc(N[C@H]2CC[C@@H](CNC(=O)OCc3ccc([N+](=O)[O-])cc3)CC2)nc2ccccc12 [compound 875]
< 50 nM | COC(=O)[C@H](CCSC)NC(=O)N[C@H]1CC[C@@H](Nc2nc(N(C)C)c3ccccc3n2)CC1 (relative stereo) [compound 41, methyl N-{[(cis-4-{[4-(dimethylamino)quinazolin-2-yl]amino}cyclohexyl)amino]carbonyl}methioninate]
> 200 nM | COC(=O)c1ccc(NC(=O)N[C@H]2CC[C@@H](Nc3nc(N(C)C)c4ccccc4n3)CC2)cc1 [compound 845]
< 50 nM | COc1cc(NC(=S)N[C@H]2CC[C@@H](Nc3nc(N(C)C)c4ccccc4n3)CC2)cc(OC)c1OC [compound 195, N-(cis-4-{[4-(dimethylamino)quinazolin-2-yl]amino}cyclohexyl)-N′-(3,4,5-trimethoxyphenyl)thiourea]
50 to 200 nM | CN(C)c1nc(N[C@H]2CC[C@@H](NC(=O)Nc3ccc(F)cc3[N+](=O)[O-])CC2)nc2ccccc12 [compound 822, N-(cis-4-{[4-(dimethylamino)quinazolin-2-yl]amino}cyclohexyl)-N′-(4-fluoro-2-nitrophenyl)urea]
< 50 nM | CN(C)c1nc(N[C@H]2CC[C@@H](NC(=S)Nc3cccc4ccccc34)CC2)nc2ccccc12 [compound 187, N-(cis-4-{[4-(dimethylamino)quinazolin-2-yl]amino}cyclohexyl)-N′-1-naphthylthiourea]
> 200 nM | CN(C)c1nc(N[C@H]2CC[C@@H](CNC(=S)Nc3cccc4nsnc34)CC2)nc2ccccc12 [compound 815]
> 200 nM | CC(C)c1ccc(NC(=O)N[C@H]2CC[C@@H](Nc3nc(N(C)C)c4ccccc4n3)CC2)cc1 [compound 39]

Structure (SMILES) | IC50
Cc1ccc(OC(=O)NC[C@H]2CC[C@@H](Nc3nc(N(C)C)c4ccccc4n3)CC2)cc1 [compound 881] | > 200 nM

same assay, conditions: class by percent of control at 10^−7 M or by IC50; read-out: class

IC50 | Structure (SMILES)
> 200 nM | CN(C)c1nc(N[C@H]2CC[C@@H](CNC(=O)C(O)c3cccc(F)c3F)CC2)nc2ccccc12 (relative stereo) [Example 1093, 2-(2,3-difluorophenyl)-N-[(cis-4-{[4-(dimethylamino)quinazolin-2-yl]amino}cyclohexyl)methyl]-2-hydroxyacetamide]
> 200 nM | CN(C)c1nc(N[C@H]2CC[C@@H](CNC(=O)C(O)c3ccc(F)c(F)c3)CC2)nc2ccccc12 (relative stereo) [Example 1095, 2-(3,4-difluorophenyl)-N-[(cis-4-{[4-(dimethylamino)quinazolin-2-yl]amino}cyclohexyl)methyl]-2-hydroxyacetamide]
< 50 nM | CN(C)c1nc(N[C@H]2CC[C@@H](CNC(=O)Nc3c(Cl)cccc3Cl)CC2)nc2ccccc12 [Example 1025, N-(2,6-dichlorophenyl)-N′-[(cis-4-{[4-(dimethylamino)quinazolin-2-yl]amino}cyclohexyl)methyl]urea]
< 50 nM | CN(C)c1nc(N[C@H]2CC[C@@H](NC(=O)c3ccc(F)cc3)CC2)nc2cc(F)c(F)cc12 [Example 1207, N-(cis-4-{[4-(dimethylamino)-6,7-difluoroquinazolin-2-yl]amino}cyclohexyl)-4-fluorobenzamide]
